# Assay results as given in patent US11007243B2, “Enzyme-assisted supercritical extraction of nigella sativa seeds” (priority 2016, dated 2021).
# Like-named read-outs stand apart in the source and are kept apart here.
# Experiments:
# [1] = test system: Albino Wistar rats injected with Ibotenic acid; experiment: Open field test in ibotenic acid (I.C.V.) model; type: in vivo; conditions: IBO i.c.v., oral treatment 30 days, FIG. 2b
# Description: Ibotenic acid (IBO) is a non-selective glutamate receptor […] which can be used as a powerful neurotoxin to produce anxiety, stress, depression and dementia. It is injected intra cerebro-ventricularly as a brain lesioning agent specially to destroy the neuronal cells in hippocampal and cortical region responsible for fear, anxiety and depression, as well as learning and memory. […] The NMDA subtype of glutamate receptor is an important mediator of synaptic plasticity and plays a central role in the neurobiological mechanisms of emotionality including fear, anxiety and depression, as well as learning and memory (Barkus et al., European Journal of Pharmacology, 2010; 626(1), 49-56).
# Ibotenic acid is administered to Albino Wistar rats at the dose of 5 μg/μL/intracerebroventricularly using Hamilton syringe at the rate of 0.1 μL/min. The animals were then treated continuously for 30 days with Black cumin extracts (BCE) orally at various dosages (thymoquinone content) and evaluated for its anxiolytic properties using elevated plus maze and modified open field apparatus. The various black cumin extracts (BCE) dosages evaluated in the study are outlined in Table-3.
# The open field test is conventionally designed to assess the state of anxiety, locomotor and exploratory activity. […] Results were statistically analysed by one-way ANOVA followed by Tukey's multiple comparison test.
# [2] = Roghani et al. 2012; cited from earlier work
# mice = conditions: cited from earlier work
# rats = conditions: cited from earlier work
# rabbits = conditions: cited from earlier work
# IMR-32 cell line = experiment: SRB growth assay on IMR-32 neuronal cell line; type: cell-based; conditions: Homo sapiens, IMR-32, read-out: GI 50 (concentration causing 50% inhibition of cell growth)
# U373-MG cell line = experiment: SRB growth assay on U373 MG glial cell line; type: cell-based; conditions: Homo sapiens, read-out: GI 50 (concentration causing 50% inhibition of cell growth)
compound,measurement,setting,value
CC12CC3CC(C)(C1)CC(N)(C3)C2 [Memantine],"Rearing behaviour (rearing frequency), open field",[1],"no significant difference between the BCE4 treated group, memantine group and the control group"
"CC1=CC(=O)C(C(C)C)=CC1=O [TQ, 2-isopropyl-5-methyl-1,4-benzoquinone]",Memory improvement,[2],memory improvement in a dose dependent manner
same,LD50,mice; intra-peritoneal injection,104.7 mg/kg
same,LD50,mice; oral ingestion,870.9 mg/kg
same,LD50,rats; intra-peritoneal injection,57.5 mg/kg
same,LD50,rats; oral ingestion,794.3 mg/kg
same,LD50,rabbits,2400 mg/kg
COc1cccc2c1C(=O)c1c(O)c3c(c(O)c1C2=O)C[C@@](O)(C(=O)CO)C[C@@H]3O[C@H]1C[C@H](N)[C@H](O)[C@H](C)O1 [Adriamycin],GI50,IMR-32 cell line,< 10 µg/mL
same,GI50,U373-MG cell line,< 10 µg/mL
